Measurements taken from patent US11613527B2, “Enzyme inhibitors” (KalVista Pharmaceuticals Limited, priority 2019, dated 2023).
pIC50: −log10 of the molar value. Values after ≈ are worked out from the molar mass of the structure shown.

Key:
Human plasma kallikrein = Human plasma kallikrein (Homo sapiens (Human), UniProt P03952); test: Determination of the IC50 for plasma kallikrein (fluorogenic substrate H-DPro-Phe-Arg-AFC); format: biochemical; conditions: class symbols A-D, read-out: IC50 (human PKal)
In short: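 IC50 values come from initial rates, monitored as the change in absorbance at 410 nm, of residual enzyme activity. Test compound was present at various concentrations with the fluorogenic substrate H-DPro-Phe-Arg-AFC, and the reaction was run at 25° C.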

Human KLK1 = Human KLK1 (Homo sapiens (Human), UniProt P06870); test: Determination of the IC50 for KLK1 (fluorogenic substrate H-DVal-Leu-Arg-AFC); format: biochemical
In short: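 Inhibition read as initial rate via optical absorbance change at 410 nm, giving IC50. Reactions combined human KLK1, the substrate H-DVal-Leu-Arg-AFC and varied compound concentrations at 25° C.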

Human FXIa = Human FXIa (Homo sapiens (Human), UniProt P03951); test: Determination of the % inhibition for FXIa (fluorogenic substrate Z-Gly-Pro-Arg-AFC; 40 μM or IC50); format: biochemical
In short: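 Inhibition measured from initial reaction rate, followed as absorbance change at 410 nm, with substrate Z-Gly-Pro-Arg-AFC at 25 °C. Compound tested at a single 40 μM dose for percent inhibition, or across several concentrations to derive IC50 against human FXIa.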

[1] = Solubility after 24 hrs in Fasted State Simulated Intestinal Fluid (FaSSIF); format: physicochemical; conditions: Fasted State Simulated Intestinal Fluid (FaSSIF), thermodynamic from solid, 24 hrs at 37° C., nominal concentration 1 mg/mL (as free base)
Experimental: Selected compounds were further screened for solubility in Fasted State Simulated Intestinal Fluid (FaSSIF).
Approximately 1 mg of test compound is accurately weighed into a 2 mL vial. Volumes of the FaSSIF solution (pre-heated to 37° C.) were added to a vial to give a nominal concentration of 1 mg/mL (as free base). The FaSSIF solution was prepared on the day of use. The samples were vortexed before being placed in a Titramax 1000 shaker for 24 hrs at 37° C. and approximately 500 rpm. The samples were transferred to eppendorf tubes and centrifuged at 15,000 g (r.c.f.) for 10 min at 37° C. and analysed for concentration of test compound by LCMS.

[2] = Pharmacokinetics following a single oral dose in male Sprague-Dawley rats; format: in vivo; conditions: rat, nominal 5 mg/kg in 10% DMSO/10% cremophor/80% SWFI, plasma
Experimental: Pharmacokinetic studies of the compounds in Table 14 were performed to assess the pharmacokinetics following a single oral dose in male Sprague-Dawley rats. Two rats were given a single po dose of 5 mL/kg of a nominal 1 mg/mL (5 mg/kg) composition of test compound in 10% DMSO/10% cremophor/80% SWFI vehicle. Following dosing, blood samples were collected over a period of […]. Sample times were 5, 15 and 30 minutes then 1, 2, 4, 6, 8 and 12 hours. Following collection, blood samples were centrifuged and the plasma fraction analysed for concentration of test compound by LCMS.

Human plasma kallikrein, sequence (P03952 391-638): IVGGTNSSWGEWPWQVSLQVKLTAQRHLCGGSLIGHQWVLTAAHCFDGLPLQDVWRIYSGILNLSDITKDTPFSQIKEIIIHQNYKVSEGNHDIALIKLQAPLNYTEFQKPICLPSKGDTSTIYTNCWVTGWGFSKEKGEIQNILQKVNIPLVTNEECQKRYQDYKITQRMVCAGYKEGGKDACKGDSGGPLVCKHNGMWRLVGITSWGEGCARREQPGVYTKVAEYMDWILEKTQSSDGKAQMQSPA
Human plasma kallikrein, sequence (P03952 20-390 partner): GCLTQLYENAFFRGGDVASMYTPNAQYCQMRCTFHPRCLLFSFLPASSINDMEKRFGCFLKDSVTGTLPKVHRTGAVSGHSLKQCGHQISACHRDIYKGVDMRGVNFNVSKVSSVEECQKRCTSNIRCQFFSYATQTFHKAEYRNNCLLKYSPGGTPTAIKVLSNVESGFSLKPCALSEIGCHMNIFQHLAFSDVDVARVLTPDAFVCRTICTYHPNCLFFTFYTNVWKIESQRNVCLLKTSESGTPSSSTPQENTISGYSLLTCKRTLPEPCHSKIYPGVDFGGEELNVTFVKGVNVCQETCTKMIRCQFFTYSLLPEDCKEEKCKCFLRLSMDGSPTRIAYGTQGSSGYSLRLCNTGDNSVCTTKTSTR
Human KLK1, sequence (P06870 25-262): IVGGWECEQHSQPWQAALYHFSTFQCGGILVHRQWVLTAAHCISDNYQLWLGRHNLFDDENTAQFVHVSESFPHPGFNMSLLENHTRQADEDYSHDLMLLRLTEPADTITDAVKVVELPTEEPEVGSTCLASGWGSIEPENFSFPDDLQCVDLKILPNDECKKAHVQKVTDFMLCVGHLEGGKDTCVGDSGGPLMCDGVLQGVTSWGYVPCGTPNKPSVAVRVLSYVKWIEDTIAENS
Human FXIa, sequence (P03951 388-625): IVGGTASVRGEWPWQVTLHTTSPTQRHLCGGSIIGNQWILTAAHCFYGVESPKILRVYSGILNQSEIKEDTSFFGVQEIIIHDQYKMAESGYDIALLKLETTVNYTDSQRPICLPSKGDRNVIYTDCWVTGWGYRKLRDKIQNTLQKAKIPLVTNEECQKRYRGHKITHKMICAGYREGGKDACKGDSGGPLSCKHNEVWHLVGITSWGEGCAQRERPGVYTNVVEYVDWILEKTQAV
Human FXIa, sequence (P03951 19-387 partner): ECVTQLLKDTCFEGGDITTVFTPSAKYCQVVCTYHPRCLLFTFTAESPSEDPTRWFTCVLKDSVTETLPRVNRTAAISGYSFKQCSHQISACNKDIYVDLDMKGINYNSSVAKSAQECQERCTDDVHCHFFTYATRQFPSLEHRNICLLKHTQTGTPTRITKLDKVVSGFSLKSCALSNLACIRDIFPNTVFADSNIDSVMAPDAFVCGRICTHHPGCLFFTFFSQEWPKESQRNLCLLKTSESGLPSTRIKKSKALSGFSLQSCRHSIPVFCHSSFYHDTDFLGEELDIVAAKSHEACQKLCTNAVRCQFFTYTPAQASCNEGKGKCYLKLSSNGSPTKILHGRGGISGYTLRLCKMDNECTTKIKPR

With `COCc1nn(Cc2ccc3c(c2)CCN(C(C)C)C3)cc1C(=O)NCc1c(-n2ccc(C#N)n2)ccc(OC)c1F` [Example 46, N-{[6-(3-cyanopyrazol-1-yl)-2-fluoro-3-methoxyphenyl]methyl}-1-[(2-isopropyl-3,4-dihydro-1H-isoquinolin-6-yl)methyl]-3-(methoxymethyl)pyrazole-4-carboxamide] the pIC50 (Human plasma kallikrein) was > 8.00, the pIC50 (Human KLK1) was < 4.40 and the pIC50 (Human FXIa) was < 4.40. For the same compound, the solubility at 24 h [1] was > 1000 µg/mL and the Cmax [2] was 34 ng/mL.

For `CCN1CCc2cc(Cn3cc(C(=O)NCc4c(-n5cc(C)nn5)ccc(OC)c4F)c(COC)n3)ccc2C1` [Example 38, 1-[(2-ethyl-3,4-dihydro-1H-isoquinolin-6-yl)methyl]-N-{[2-fluoro-3-methoxy-6-(4-methyl-1,2,3-triazol-1-yl)phenyl]methyl}-3-(methoxymethyl)pyrazole-4-carboxamide], the pIC50 (Human plasma kallikrein) was > 8.00, the pIC50 (Human KLK1) was < 4.40 and the pIC50 (Human FXIa) was < 4.40. The solubility at 24 h [1] was 740 µg/mL (≈ 1350 µM) and the Cmax [2] was 51 ng/mL.

With `COCc1nn(Cc2ccc3c(c2)CCN(C(C)C)C3)cc1C(=O)NCc1c(-n2cc(C)nn2)ccc(OC)c1F` [Example 37, N-{[2-fluoro-3-methoxy-6-(4-methyl-1,2,3-triazol-1-yl)phenyl]methyl}-1-[(2-isopropyl-3,4-dihydro-1H-isoquinolin-6-yl)methyl]-3-(methoxymethyl)pyrazole-4-carboxamide] the pIC50 (Human plasma kallikrein) was > 8.00, the pIC50 (Human KLK1) was < 4.40 and the pIC50 (Human FXIa) was < 4.40. For the same compound, the solubility at 24 h [1] was > 1000 µg/mL and the Cmax [2] was 38 ng/mL.

In the case of `COCc1nn(Cc2ccc3c(c2)CN(C)CC32CC2)cc1C(=O)NCc1c(-n2cc(C)nn2)ccc(OC)c1F` [Example 126, N-{[2-fluoro-3-methoxy-6-(4-methyl-1,2,3-triazol-1-yl)phenyl]methyl}-3-(methoxymethyl)-1-{2′-methyl-1′,3′-dihydrospiro[cyclopropane-1,4′-isoquinoline]-7′-ylmethyl}pyrazole-4-carboxamide], the pIC50 (Human plasma kallikrein) was > 8.00, the pIC50 (Human KLK1) was < 4.40 and the pIC50 (Human FXIa) was < 4.40. The solubility at 24 h [1] was 880 µg/mL (≈ 1570 µM) and the Cmax [2] was 63 ng/mL.

For `COCc1nn(Cc2ccc3c(c2)CN(C)C3)cc1C(=O)NCc1c(-n2cc(C)nn2)ccc(OC)c1F` [Example 54, N-{[2-fluoro-3-methoxy-6-(4-methyl-1,2,3-triazol-1-yl)phenyl]methyl}-3-(methoxymethyl)-1-[(2-methyl-1,3-dihydroisoindol-5-yl)methyl]pyrazole-4-carboxamide], the pIC50 (Human plasma kallikrein) was > 8.00, the pIC50 (Human KLK1) was < 5.40 and the pIC50 (Human FXIa) was < 5.40. The solubility at 24 h [1] was 820 µg/mL (≈ 1580 µM) and the Cmax [2] was 154 ng/mL.

In the case of `COCc1nn(Cc2ccc3c(c2)CN(C)CC3)cc1C(=O)NCc1c(-n2cnc(C(F)(F)F)n2)ccc(OC)c1F` [Example 13, N-({2-fluoro-3-methoxy-6-[3-(trifluoromethyl)-1,2,4-triazol-1-yl]phenyl}methyl)-3-(methoxymethyl)-1-[(2-methyl-3,4-dihydro-1H-isoquinolin-7-yl)methyl]pyrazole-4-carboxamide], the pIC50 (Human plasma kallikrein) was > 8.00, the pIC50 (Human KLK1) was < 4.40 and the pIC50 (Human FXIa) was < 4.40. It also gave a solubility at 24 h [1] of 860 µg/mL (≈ 1460 µM) and a Cmax [2] of 88 ng/mL.

For `COCc1nn(Cc2cnc3c(c2)CCN(C(C)C)C3)cc1C(=O)NCc1c(-n2cc(C)nn2)ccc(OC)c1F` [Example 117, N-{[2-fluoro-3-methoxy-6-(4-methyl-1,2,3-triazol-1-yl)phenyl]methyl}-1-[(7-isopropyl-6,8-dihydro-5H-1,7-naphthyridin-3-yl)methyl]-3-(methoxymethyl)pyrazole-4-carboxamide], the pIC50 (Human plasma kallikrein) was 7.52 to 8.00, the pIC50 (Human KLK1) was < 4.40 and the pIC50 (Human FXIa) was < 4.40. For the same compound, the solubility at 24 h [1] was 900 µg/mL (≈ 1600 µM).

For `COCc1nn(Cc2ccc3c(c2)CCN(C)C3)cc1C(=O)NCc1c(-n2cnc(C(F)F)n2)ccc(OC)c1F` [Example 41, N-({6-[3-(difluoromethyl)-1,2,4-triazol-1-yl]-2-fluoro-3-methoxyphenyl}methyl)-3-(methoxymethyl)-1-[(2-methyl-3,4-dihydro-1H-isoquinolin-6-yl)methyl]pyrazole-4-carboxamide], the pIC50 (Human plasma kallikrein) was > 8.00, the pIC50 (Human KLK1) was < 4.40 and the pIC50 (Human FXIa) was < 4.40. For the same compound, the solubility at 24 h [1] was > 1000 µg/mL.

With `CCN1CCc2cc(Cn3cc(C(=O)NCc4c(-n5cnc(C(F)(F)F)n5)ccc(OC)c4F)c(COC)n3)ccc2C1` [Example 51, 1-[(2-ethyl-3,4-dihydro-1H-isoquinolin-6-yl)methyl]-N-({2-fluoro-3-methoxy-6-[3-(trifluoromethyl)-1,2,4-triazol-1-yl]phenyl}methyl)-3-(methoxymethyl)pyrazole-4-carboxamide] the pIC50 (Human plasma kallikrein) was > 8.00, the pIC50 (Human KLK1) was < 4.40 and the pIC50 (Human FXIa) was < 4.40. It also gave a solubility at 24 h [1] of 770 µg/mL (≈ 1280 µM).

For `COCc1nn(Cc2ccc3c(c2)CN(C)CC3)cc1C(=O)NCc1c(-n2cnc(C(F)F)n2)ccc(OC)c1Cl` [Example 156, N-({2-chloro-6-[3-(difluoromethyl)-1,2,4-triazol-1-yl]-3-methoxyphenyl}methyl)-3-(methoxymethyl)-1-[(2-methyl-3,4-dihydro-1H-isoquinolin-7-yl)methyl]pyrazole-4-carboxamide], the pIC50 (Human plasma kallikrein) was > 8.00, the pIC50 (Human KLK1) was < 4.40 and the pIC50 (Human FXIa) was < 4.40. For the same compound, the solubility at 24 h [1] was > 1000 µg/mL.

In the case of `COCc1nn(Cc2ccc3c(c2)CCN(C)C3)cc1C(=O)NCc1c(-n2cc(C)nn2)ccc(OC)c1F` [Example 36, N-{[2-fluoro-3-methoxy-6-(4-methyl-1,2,3-triazol-1-yl)phenyl]methyl}-3-(methoxymethyl)-1-[(2-methyl-3,4-dihydro-1H-isoquinolin-6-yl)methyl]pyrazole-4-carboxamide], the pIC50 (Human plasma kallikrein) was > 8.00, the pIC50 (Human KLK1) was < 5.40 and the pIC50 (Human FXIa) was < 5.40. For the same compound, the solubility at 24 h [1] was 880 µg/mL (≈ 1650 µM).

In the case of `COc1ccc(-n2cc(C)nn2)c(CNC(=O)c2cn(Cc3ccc4c(n3)CCN(C)C4)nc2C(F)(F)F)c1F` [Example 138, N-{[2-fluoro-3-methoxy-6-(4-methyl-1,2,3-triazol-1-yl)phenyl]methyl}-1-[(6-methyl-7,8-dihydro-5H-1,6-naphthyridin-2-yl)methyl]-3-(trifluoromethyl)pyrazole-4-carboxamide], the pIC50 (Human plasma kallikrein) was 7.52 to 8.00, the pIC50 (Human KLK1) was < 4.40 and the pIC50 (Human FXIa) was < 4.40. The solubility at 24 h [1] was > 1000 µg/mL.

With `COCc1nn(Cc2ccc3c(c2)CCN(C2CC2)C3)cc1C(=O)NCc1c(-n2cc(C)nn2)ccc(OC)c1F` [Example 35, 1-[(2-cyclopropyl-3,4-dihydro-1H-isoquinolin-6-yl)methyl]-N-{[2-fluoro-3-methoxy-6-(4-methyl-1,2,3-triazol-1-yl)phenyl]methyl}-3-(methoxymethyl)pyrazole-4-carboxamide] the pIC50 (Human plasma kallikrein) was 7.00 to 7.52, the pIC50 (Human KLK1) was < 4.40 and the pIC50 (Human FXIa) was < 4.40. For the same compound, the solubility at 24 h [1] was 510 µg/mL (≈ 911 µM).

For `CCN1CCc2cc(Cn3cc(C(=O)NCc4c(-n5cnc(C(F)F)n5)ccc(OC)c4F)c(COC)n3)ccc2C1` [Example 50, N-({6-[3-(difluoromethyl)-1,2,4-triazol-1-yl]-2-fluoro-3-methoxyphenyl}methyl)-1-[(2-ethyl-3,4-dihydro-1H-isoquinolin-6-yl)methyl]-3-(methoxymethyl)pyrazole-4-carboxamide], the pIC50 (Human plasma kallikrein) was > 8.00, the pIC50 (Human KLK1) was < 4.40 and the pIC50 (Human FXIa) was < 4.40. For the same compound, the solubility at 24 h [1] was 720 µg/mL (≈ 1230 µM).

For `COCc1nn(Cc2ccc3c(c2)CN(C)CC3)cc1C(=O)NCc1c(-n2ccc(C#N)n2)ccc(OC)c1F` [Example 11, N-{[6-(3-cyanopyrazol-1-yl)-2-fluoro-3-methoxyphenyl]methyl}-3-(methoxymethyl)-1-[(2-methyl-3,4-dihydro-1H-isoquinolin-7-yl)methyl]pyrazole-4-carboxamide], the pIC50 (Human plasma kallikrein) was > 8.00, the pIC50 (Human KLK1) was < 4.40 and the pIC50 (Human FXIa) was 4.72. For the same compound, the solubility at 24 h [1] was 730 µg/mL (≈ 1340 µM).

In the case of `COCc1nn(Cc2ccc3c(c2)CCN(C(C)C)CC3)cc1C(=O)NCc1c(-n2cc(C)nn2)ccc(OC)c1F` [Example 122, N-{[2-fluoro-3-methoxy-6-(4-methyl-1,2,3-triazol-1-yl)phenyl]methyl}-1-[(3-isopropyl-1,2,4,5-tetrahydro-3-benzazepin-7-yl)methyl]-3-(methoxymethyl)pyrazole-4-carboxamide], the pIC50 (Human plasma kallikrein) was > 8.00, the pIC50 (Human KLK1) was < 4.40 and the pIC50 (Human FXIa) was < 4.40. It also gave a solubility at 24 h [1] of 730 µg/mL (≈ 1270 µM).

With `COCc1nn(Cc2ccc3c(c2)CN(C(C)C)C3)cc1C(=O)NCc1c(-n2cc(C)nn2)ccc(OC)c1F` [Example 55, N-{[2-Fluoro-3-methoxy-6-(4-methyl-1,2,3-triazol-1-yl)phenyl]methyl}-1-[(2-isopropyl-1,3-dihydroisoindol-5-yl)methyl]-3-(methoxymethyl)pyrazole-4-carboxamide] the solubility at 24 h [1] was > 1000 µg/mL and the Cmax [2] was 136 ng/mL.
